In ChEMBL document CHEMBL3864146, “5-Alkyloxytryptamines are membrane-targeting, broad-spectrum antibiotics” (Bioorg Med Chem Lett, 2016):

Experiments:
[1] = tested on: Bacillus subtilis; test: Antibacterial activity against Bacillus subtilis 168 after 16 to 18 hrs by micro-dilution method; assay type: functional; details: subsp. subtilis str. 168
[2] = tested on: Staphylococcus aureus; test: Antibacterial activity against Staphylococcus aureus after 16 to 18 hrs by micro-dilution method; assay type: functional
[3] = tested on: Acinetobacter baumannii; test: Antibacterial activity against Acinetobacter baumannii after 16 to 18 hrs by micro-dilution method; assay type: functional
[4] = tested on: Escherichia coli; test: Antibacterial activity against Escherichia coli BW25113 after 16 to 18 hrs by micro-dilution method; assay type: functional
[5] = tested on: Escherichia coli; test: Antibacterial activity against tolC-deficient Escherichia coli BW25113 after 16 to 18 hrs by micro-dilution method; assay type: functional
[6] = tested on: Shigella boydii; test: Antibacterial activity against Shigella boydii after 16 to 18 hrs by micro-dilution method; assay type: functional
[7] = tested on: Escherichia coli; test: Induction of membrane permeabilization in Escherichia coli BW25113 at MIC after 15 mins by propidium iodide staining-based fluorescence microplate reader method relative to 50% ethanol; assay type: functional
[8] = tested on: Klebsiella aerogenes; test: Antibacterial activity against Enterobacter aerogenes after 16 to 18 hrs by micro-dilution method; assay type: functional
[9] = tested on: Klebsiella pneumoniae; test: Antibacterial activity against Klebsiella pneumoniae after 16 to 18 hrs by micro-dilution method; assay type: functional
[10] = tested on: Pseudomonas aeruginosa; test: Antibacterial activity against Pseudomonas aeruginosa after 16 to 18 hrs by micro-dilution method; assay type: functional
[11] = tested on: Vibrio cholerae; test: Antibacterial activity against Vibrio cholerae after 16 to 18 hrs by micro-dilution method; assay type: functional
[12] = tested on: Edwardsiella tarda; test: Antibacterial activity against Edwardsiella tarda after 16 to 18 hrs by micro-dilution method; assay type: functional
[13] = tested on: Salmonella typhimurium; test: Antibacterial activity against Salmonella typhimurium after 16 to 18 hrs by micro-dilution method; assay type: functional, Salmonella enterica subsp. enterica serovar Typhimurium; details: Salmonella enterica
[14] = tested on: Morganella morganii; test: Antibacterial activity against Morganella morganii after 16 to 18 hrs by micro-dilution method; assay type: functional

In the case of `COc1ccc2c(CCN)c[nH]c2c1`, the MIC [1] is reported as greater than 60.8 µg/mL, the MIC [2] is reported as greater than 60.8 µg/mL and the MIC [3] is reported as greater than 60.8 µg/mL. The MIC [4] was greater than 60.8 µg/mL and the MIC [5] was greater than 60.8 µg/mL.

`CCCCOc1ccc2[nH]cc(CCN)c2c1.Cl` showed an MIC [1] greater than 74.3 µg/mL, an MIC [6] greater than 74 µg/mL and an MIC [2] greater than 74.3 µg/mL. For the same molecule, the Activity [7] was 3%, the MIC [8] was greater than 74 µg/mL and the MIC [9] was greater than 74 µg/mL. It also gave an MIC [3] greater than 74.3 µg/mL, an MIC [10] greater than 74 µg/mL and an MIC [11] greater than 74 µg/mL. It also gave an MIC [4] greater than 74.3 µg/mL, an MIC [5] greater than 74.3 µg/mL and an MIC [12] greater than 74 µg/mL. The MIC [13] was greater than 74 µg/mL and the MIC [14] was greater than 74 µg/mL.

Work on `CCCCCCCCCCCCCCCOc1ccc2[nH]cc(CCN)c2c1.Cl` yielded an MIC [1] greater than 124 µg/mL, an MIC [6] greater than 124 µg/mL and an MIC [2] greater than 124 µg/mL. The Activity [7] was 13%, the MIC [8] was greater than 124 µg/mL and the MIC [9] was greater than 124 µg/mL. The MIC [3] was greater than 124 µg/mL, the MIC [10] was greater than 124 µg/mL and the MIC [11] was greater than 124 µg/mL. The MIC [4] was greater than 124 µg/mL, the MIC [5] was greater than 124 µg/mL and the MIC [12] was greater than 124 µg/mL. For the same molecule, the MIC [13] was greater than 124 µg/mL and the MIC [14] was greater than 124 µg/mL.

`Cc1[nH]c2ccc(O)cc2c1CCN` showed an MIC [1] greater than 60.8 µg/mL, an MIC [2] greater than 60.8 µg/mL and an MIC [3] greater than 60.8 µg/mL. The MIC [4] was greater than 60.8 µg/mL and the MIC [5] was greater than 60.8 µg/mL.
